Test results reported in paper PMC8761912, “Cryptosporidium parvum Pyruvate Kinase Inhibitors With in vivo Anti-cryptosporidial Efficacy” (Frontiers in Microbiology, 2022).
pEC50: −log10 of the molar value. “Also recorded” adds a separate entry of the source. Like-named read-outs stand apart in the source and are kept apart here.

Legend:
C. parvum [1] = test: In vitro anti-Cryptosporidium activity in infected HCT-8 cells (immunofluorescence assay); type: cell-based, Cryptosporidium parvum; details: for effect on in vitro proliferation and viability of C. parvum: 25 μM, added immediately after infection, 48 h of culture, vs untreated parasites; for pEC50: Cryptosporidium parvum; for Selectivity index (CC50/EC50): HCT-8 CC50 / anti-C. parvum EC50; for effect on proliferation of intracellular C. parvum in HCT-8 cells: varying concentrations, 0 h or 2 h PI, analysed 48 h PI, vs infected cultures without compound
Experimental: Once confluent, the cells were infected with 10^5 freshly excysted C. parvum sporozoites per well, immediately followed by the addition of anti-CpPyK compounds (reconstituted in DMSO) to one set of wells. Control infected cells were treated with DMSO volumes equivalent to those used for the compound-treated cultures. Paromomycin reconstituted in distilled sterile water, served as a positive control at a concentration of 200 μM. […] Briefly, the medium was removed from the culture wells, and the cells were washed two times with PBS before fixation with pre-chilled methanol-acetic acid (9:1) for 5 min at room temperature. Residual fixative was removed by rinsing the wells with PBS. Cells were rehydrated and permeabilized by washing twice with a buffer containing 0.1% Triton X-100, 0.35 M NaCl, and 0.13 M Tris-base, pH 7.6. Normal goat serum (5% in PBS) was used as a blocking agent, and the cell monolayer was stained with a fluorescein-labeled anti-C. parvum polyclonal antibody (Sporo-Glo™; Waterborne, Inc.) overnight at 4°C. The stained cells were washed twice with PBS followed by the addition of 200 μl water to each well. Plates were then imaged with an inverted fluorescence microscope using a 20× objective. The fluorescence generated by intracellular C. parvum parasites was quantified from nine microscopic fields per well of a 96-well plate using the batch process function in ImageJ version v1.50 (NIH, United States) after setting a threshold for the detection of parasites. Control wells with uninfected monolayers were included for background subtraction. Experiments were performed in triplicate and repeated at least three times.
One set of wells with confluent HCT-8 cells received CpPyK inhibitors immediately after C. parvum infection, while the same compounds were added to the other set of wells 2 h post-infection (PI). Control infected cells were treated with varying volumes of DMSO equivalent to the ones used for the compound-treated cultures. Cell monolayers were processed for immunofluorescence analysis after 48 h of incubation as described above. Samples were run in triplicate and three independent assays were performed. EC50 values were calculated using non-linear regression analysis of the mean dose-response curve data in GraphPad PRISM® v8.

[2] = Tolerability in uninfected mice, daily oral gavage; type: in vivo; details: 10 mg/kg daily oral administration, 8 days
Experimental: (§1) Eight weeks old male interferon-gamma knockout (IFN-γ KO) mice (B6.129S7-Ifng^TM1Ts/J) were purchased from The Jackson Laboratory, United States, and allowed to quarantine and acclimatize for 1 week before the commencement of experiments. Before the start of the infection assays in mice, the tolerability of each inhibitor was determined by daily oral gavage with varying dosages (0–10 mg/kg mouse bodyweight) in groups of mice (n = 3 mice per group) for 8 days. During this period, mice were monitored daily for any changes in physical and mental activity, feeding, body weight, body temperature, fur condition, and body posture. […] Mice were divided into infected and uninfected groups (n = 3 mice per group) and each individual mouse was housed in a separate cage lined with sterile gauze bedding. Each mouse from the infected group was infected by oral gavage administration of 10^4 C. parvum AUCP-1 isolate oocysts suspended in 50 μl of PBS. Beginning day 3 PI, groups of mice were orally treated with CpPyK inhibitors (at the specified doses), sham (100 μl of 5% DMSO in PBS), or 1,000 mg/kg paromomycin (in sterile water) once daily for a total of 8 days. Fecal pellets were collected daily in individual sterile 15 ml tubes, and submerged in an equivalent volume of PBS containing a cocktail of penicillin (100 units/ml), streptomycin (100 μg/ml), chloramphenicol (34 μg/ml), and amphotericin (0.25 μg/ml), and stored at 4°C until use. Three independent replicate infection assays were performed. Mice were sacrificed at day 11 PI, and 5 cm of the distal small intestine just anterior to the cecum was resected and submerged in 10% neutral buffered formalin and submitted for histopathological processing in the Comparative Biosciences Histology Laboratory at the University of Illinois at Urbana-Champaign. Briefly, intestinal tissues preserved in 10% neutral buffered formalin were washed in 70% ethanol, embedded in paraffin, and sectioned transversely at a thickness of 5 μm. Sections were stained with hematoxylin and eosin. The slides were imaged using a Zeiss microscope fitted with a color camera.

C. parvum [3] = test: Histopathology of distal small intestine of C. parvum-infected IFN-γ KO mice; type: in vivo, Cryptosporidium parvum; details: sacrificed day 11 PI
Experimental: as §1

[4] = ref https://pubchem.ncbi.nlm.nih.gov, cited from earlier work; for Polar surface area: topological
[5] = HCT-8, read-out: Anti-C. parvum EC50, 0 h PI
[6] = HCT-8, read-out: Anti-C. parvum EC50, 2 h PI
[7] = 10 mg/kg daily oral from day 3 PI
[8] = 2.5 mg/kg daily oral from day 3 PI

Compound: c1ccc(-c2nnc(-c3ccccn3)[nH]2)nc1 [NSC234945, 2-(3-pyridin-2-yl-1H-1,2,4-triazol-5-yl)pyridine]
- effect on in vitro proliferation and viability of C. parvum (C. parvum [1]): significant inhibitory effect
- pEC50 (C. parvum [1]; [5]): 4.07
- pEC50 (C. parvum [1]; [6]): 4.05
- Selectivity index (CC50/EC50) (C. parvum [1]): 5.02
- effect on proliferation of intracellular C. parvum in HCT-8 cells (C. parvum [1]): significant (P < 0.05) concentration-dependent inhibitory effect
- toxicity signs in uninfected mice [2]: did not induce any toxicity signs
- intestinal pathology (histology, distal small intestine) (C. parvum [3]; [7]): best efficacy; also recorded: notably reduced pathological changes
- Number of Hydrogen bond acceptors [4]: 4
- Number of Hydrogen bond donors [4]: 1
- Polar surface area [4]: 67.4 Å²

Compound: CCOc1ccc(/C=C2\CCc3ccccc3C2=O)cc1 [NSC252172, (2E)-2-[(4-ethoxyphenyl)methylidene]-3,4-dihydronaphthalen-1-one]
- effect on in vitro proliferation and viability of C. parvum (C. parvum [1]): significant inhibitory effect
- pEC50 (C. parvum [1]; [5]): 4.75
- pEC50 (C. parvum [1]; [6]): 4.73
- Selectivity index (CC50/EC50) (C. parvum [1]): 15.10
- effect on proliferation of intracellular C. parvum in HCT-8 cells (C. parvum [1]): significant (P < 0.05) concentration-dependent inhibitory effect
- toxicity signs in uninfected mice [2]: did not induce any toxicity signs
- intestinal pathology (histology, distal small intestine) (C. parvum [3]; [7]): notably reduced pathological changes
- Number of Hydrogen bond acceptors [4]: 2
- Number of Hydrogen bond donors [4]: 0
- Polar surface area [4]: 26.3 Å²

Compound: Cc1cc2c(c(C#N)c1C)NC=NC2C (stereo not shown) [NSC303244, 4,6,7-trimethyl-1,4-dihydroquinazoline-8-carbonitrile]
- effect on in vitro proliferation and viability of C. parvum (C. parvum [1]): significant inhibitory effect
- pEC50 (C. parvum [1]; [5]): 4.99
- pEC50 (C. parvum [1]; [6]): 4.80
- Selectivity index (CC50/EC50) (C. parvum [1]): 64.15
- effect on proliferation of intracellular C. parvum in HCT-8 cells (C. parvum [1]): significant (P < 0.05) concentration-dependent inhibitory effect
- toxicity signs in uninfected mice [2]: did not induce any toxicity signs
- intestinal pathology (histology, distal small intestine) (C. parvum [3]; [8]): reduced intestinal pathology
- Number of Hydrogen bond acceptors [4]: 2
- Number of Hydrogen bond donors [4]: 1
- Polar surface area [4]: 48.2 Å²

Compound: N#C/C(=C\c1cc(O)c(O)c(O)c1)C(N)=O [NSC638080, (E)-2-cyano-3-(3,4,5-trihydroxyphenyl)prop-2-enamide]
- effect on in vitro proliferation and viability of C. parvum (C. parvum [1]): significant inhibitory effect
- pEC50 (C. parvum [1]; [5]): 4.96
- pEC50 (C. parvum [1]; [6]): 4.83
- Selectivity index (CC50/EC50) (C. parvum [1]): 68.96
- effect on proliferation of intracellular C. parvum in HCT-8 cells (C. parvum [1]): significant (P < 0.05) concentration-dependent inhibitory effect
- toxicity signs in uninfected mice [2]: did not induce any toxicity signs
- intestinal pathology (histology, distal small intestine) (C. parvum [3]; [8]): reduced intestinal pathology
- Number of Hydrogen bond acceptors [4]: 5
- Number of Hydrogen bond donors [4]: 4
- Polar surface area [4]: 128 Å²
